Source: US9018258B2, “Substituted 1-benzylcycloalkylcarboxylic acids and the use thereof” (Bayer Intellectual Property GmbH, priority 2010, dated 2015)

Biological target: T1, sGC (Rattus norvegicus, UniProt P20595)
T1 construct: expressed in transfected cells; host or cells: CHO reporter cell
Test: Action at a recombinant guanylate cyclase reporter cell line (CHO reporter cell)
Assay type: cell-based
Details: CHO reporter cell in vitro
Description: The cellular action of the compounds according to the invention is determined at a recombinant guanylate cyclase reporter cell line, as described in F. Wunder et al., Anal. Biochem. 339, 104-112 (2005).

T1 sequence (P19686 whole entry partner): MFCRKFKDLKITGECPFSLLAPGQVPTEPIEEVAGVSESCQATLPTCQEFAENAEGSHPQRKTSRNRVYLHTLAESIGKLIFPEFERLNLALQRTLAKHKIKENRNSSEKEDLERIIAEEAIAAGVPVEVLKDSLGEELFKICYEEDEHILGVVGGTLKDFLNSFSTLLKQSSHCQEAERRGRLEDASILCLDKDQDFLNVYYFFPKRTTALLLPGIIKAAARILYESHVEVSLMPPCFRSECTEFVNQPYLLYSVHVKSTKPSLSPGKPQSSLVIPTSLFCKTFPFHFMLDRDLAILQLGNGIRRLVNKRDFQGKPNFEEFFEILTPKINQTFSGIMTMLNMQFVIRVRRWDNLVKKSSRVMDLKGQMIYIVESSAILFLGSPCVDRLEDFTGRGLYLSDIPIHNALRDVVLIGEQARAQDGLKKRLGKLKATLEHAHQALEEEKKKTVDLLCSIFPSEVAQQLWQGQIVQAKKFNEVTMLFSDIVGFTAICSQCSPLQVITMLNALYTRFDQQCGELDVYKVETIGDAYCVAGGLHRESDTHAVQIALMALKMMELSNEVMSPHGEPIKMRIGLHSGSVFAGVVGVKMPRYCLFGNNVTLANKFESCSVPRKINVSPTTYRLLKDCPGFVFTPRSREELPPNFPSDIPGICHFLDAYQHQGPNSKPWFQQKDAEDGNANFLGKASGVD
T1 sequence (P20595 whole entry): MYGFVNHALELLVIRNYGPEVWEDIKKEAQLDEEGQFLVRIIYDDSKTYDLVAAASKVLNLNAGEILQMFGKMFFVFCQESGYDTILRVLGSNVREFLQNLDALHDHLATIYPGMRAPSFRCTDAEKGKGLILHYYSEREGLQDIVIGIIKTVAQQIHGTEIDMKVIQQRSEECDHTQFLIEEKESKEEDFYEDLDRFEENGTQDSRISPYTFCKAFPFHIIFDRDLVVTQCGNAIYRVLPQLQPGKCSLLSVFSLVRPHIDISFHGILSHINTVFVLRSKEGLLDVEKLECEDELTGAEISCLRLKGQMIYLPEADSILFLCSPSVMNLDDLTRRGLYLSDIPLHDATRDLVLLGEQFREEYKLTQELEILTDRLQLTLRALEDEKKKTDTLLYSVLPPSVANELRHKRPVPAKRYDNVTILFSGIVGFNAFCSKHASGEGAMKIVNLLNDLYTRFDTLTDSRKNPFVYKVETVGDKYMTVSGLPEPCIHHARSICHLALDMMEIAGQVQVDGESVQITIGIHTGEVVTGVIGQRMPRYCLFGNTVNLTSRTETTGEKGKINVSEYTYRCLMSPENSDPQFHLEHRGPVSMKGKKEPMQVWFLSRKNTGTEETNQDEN

Compound	MEC (minimum effective concentration), sGC-activating activity in the CHO reporter cell
C[C@H]([C@H](C(=O)Nc1cc(CC2(C(=O)O)CC2(F)F)ccc1Cl)c1ccc(Cl)cc1)C(F)(F)F (stereo partly drawn) [Example 69, 1-(4-Chloro-3-{[(2S,3R)-2-(4-chlorophenyl)-4,4,4-trifluoro-3-methylbutanoyl]amino}benzyl)-2,2-difluorocyclopropanecarboxylic acid]	3 nM
C[C@H]([C@H](C(=O)Nc1cc(C(O)C2(C(=O)O)CC2)ccc1Cl)c1ccc(Cl)cc1)C(F)(F)F (single isomer, unassigned) [Example 103]	60 nM
C[C@H]([C@H](C(=O)Nc1c(Cl)ccc(CC2(C(=O)O)CC2)c1F)c1ccc(Cl)cc1)C(F)(F)F [Example 52, 1-(4-Chloro-3-{[(2S,3R)-2-(4-chlorophenyl)-4,4,4-trifluoro-3-methylbutanoyl]amino}-2-fluorobenzyl)cyclopropanecarboxylic acid]	10 nM
C[C@H]([C@H](C(=O)Nc1cc(C(OC2CC2)C2(C(=O)O)CC2)ccc1Cl)c1ccc(Cl)cc1)C(F)(F)F (single isomer, unassigned) [Example 114]	3 nM
C[C@H]([C@H](C(=O)Nc1cc(CC2(C(=O)O)CC2)ccc1Cl)c1ccc(C(F)(F)F)cc1)C(F)(F)F [Example 41, 1-[4-chloro-3-({(2S,3R)-4,4,4-trifluoro-3-methyl-2-[4-(trifluoromethyl)phenyl]butanoyl}amino)-benzyl]cyclopropanecarboxylic acid]	1 nM
O=C(Nc1cccc(CC2(C(=O)O)CC2)c1)C(c1ccc(C=C(F)F)cc1)C1CCCC1 (racemic) [Example 12, (+/−)-1-[3-({cyclopentyl[4-(2,2-difluorovinyl)-phenyl]acetyl}amino)benzyl]cyclopropane-carboxylic acid]	100 nM
CCc1ccc(C(C(=O)Nc2cc(CC3(C(=O)O)CC3)ccc2F)C(C)C(F)(F)F)cc1 (racemic) [Example 9, (+/−)-1-(3-{[2-(4-ethylphenyl)-4,4,4-trifluoro-3-methylbutanoyl]amino}-4-fluorobenzyl)-cyclopropanecarboxylic acid]	1 nM
O=C(Nc1cccc(CC2(C(=O)O)CC2)c1)C(c1ccc(CC(F)F)cc1)C1CCCC1 (racemic) [Example 14, (+/−)-1-[3-({cyclopentyl[4-(2,2-difluoroethyl)-phenyl]acetyl}amino)benzyl]cyclopropane-carboxylic acid]	100 nM
C[C@H]([C@H](C(=O)Nc1cc(CC2(C(=O)O)CC2)ccc1C1CC1)c1ccc(Cl)cc1)C(F)(F)F [Example 97, 1-(3-{[(2S,3R)-2-(4-chlorophenyl)-4,4,4-trifluoro-3-methylbutanoyl]amino}-4-cyclopropyl-benzyl)cyclopropanecarboxylic acid]	10 nM
CC(C)c1ccc([C@@H](C(=O)Nc2cc(CC3(C(=O)O)CC3)ccc2F)[C@@H](C)C(F)(F)F)cc1 [Example 37, 1-(4-fluoro-3-{[(2S,3R)-4,4,4-trifluoro-2-(4-isopropylphenyl)-3-methylbutanoyl]amino}-benzyl)cyclopropanecarboxylic acid]	0.1 nM
C=Cc1ccc([C@@H](C(=O)Nc2cc(CC3(C(=O)O)CC3)ccc2F)[C@@H](C)C(F)(F)F)cc1 [Example 63, (+)-1-(4-Fluoro-3-{[(2S,3R)-4,4,4-trifluoro-3-methyl-2-(4-vinylphenyl)butanoyl]amino}benzyl)-cyclopropanecarboxylic acid]	0.3 nM
C[C@H]([C@H](C(=O)Nc1cc(C(OC2CC2)C2(C(=O)O)CC2)ccc1Cl)c1ccc(Cl)cc1)C(F)(F)F (single isomer, unassigned) [Example 113]	0.3 nM
N#Cc1ccc(C(C(=O)Nc2cc(CC3(C(=O)O)CC3)ccc2F)C2CCCC2)cc1 (racemic) [Example 15, (+/−)-1-(3-{[(4-cyanophenyl)(cyclopentyl)acetyl]-amino}-4-fluorobenzyl)cyclopropanecarboxylic acid]	30 nM
C[C@H]([C@H](C(=O)Nc1cc(C(C)(O)C2(C(=O)O)CC2)ccc1Cl)c1ccc(Cl)cc1)C(F)(F)F (stereo partly drawn) [Example 111, 1-[1-(4-chloro-3-{[(2S,3R)-2-(4-chlorophenyl)-4,4,4-trifluoro-3-methylbutanoyl]amino}phenyl)-1-hydroxyethyl]cyclopropanecarboxylic acid]	30 nM
O=C(Nc1cccc(CC2(C(=O)O)CC2)c1)C(c1ccc(C(F)(F)F)cc1)C1CCCC1 (racemic) [Example 53, (+/−)-1-[3-({Cyclopentyl[4-(trifluoromethyl)phenyl]acetyl}amino)benzyl]cyclopropanecarboxylic acid]	10 nM
O=C(Nc1cc(CC2(C(=O)O)CC2)ccc1F)C(c1ccc(Cl)cc1)C1CCCC1(F)F (racemic) [Example 65, 1-(3-{[(4-Chlorophenyl)(2,2-difluorocyclopentyl)acetyl]amino}-4-fluorobenzyl)cyclopropane-carboxylic acid]	5.3 nM
C[C@H]([C@H](C(=O)Nc1cc(CC2(C(=O)O)CC2)ccc1F)c1ccc(C(C)(C)C)cc1)C(F)(F)F [Example 39, 1-(3-{[(2S,3R)-2-(4-tert-butylphenyl)-4,4,4-trifluoro-3-methylbutanoyl]amino}-4-fluorobenzyl)cyclopropanecarboxylic acid]	0.3 nM
O=C(Nc1cccc(CC2(C(=O)O)CC2)c1F)C(c1ccc(Cl)cc1)C1CCCC1 (racemic) [Example 6, (+/−)-1-(3-{[(4-chlorophenyl)(cyclopentyl)acetyl]-amino}-2-fluorobenzyl)cyclopropanecarboxylic acid]	30 nM
O=C(Nc1cc(CC2(C(=O)O)CC2)ccc1Cl)C(c1ccc(Cl)cc1)C1CCC(F)(F)C1 (stereo not drawn) [Example 35, 1-(3-{[(4-chlorophenyl)(3,3-difluorocyclopentyl)-acetyl]amino}-4-chlorobenzyl)cyclopropane-carboxylic acid]	10 nM
O=C(Nc1cc(CC2(C(=O)O)CC2)ccc1F)C(c1ccc([N+](=O)[O-])cc1)C1CCCC1 (racemic) [Example 16, (+/−)-1-(3-{[(4-nitrophenyl)(cyclopentyl)acetyl]-amino}-4-fluorobenzyl)cyclopropanecarboxylic acid]	10 nM
CC(C(C(=O)Nc1cc(CC2(C(=O)O)CC2)ccc1Cl)c1ccc(CC(F)(F)F)cc1)C(F)(F)F (stereo not drawn) [Example 46, 1-[4-chloro-3-({4,4,4-trifluoro-3-methyl-2-[4-(2,2,2-trifluoroethyl)phenyl]butanoyl}amino)-benzyl]cyclopropanecarboxylic acid]	1 nM
